Literature values as cited in patent US20260232713A1, “PLECOMACROLIDE DERIVATIVES FOR MHC-I NEF DOWNMODULATION” (priority 2022, published 2026).

What was measured:
[1] = biological target: T1, HIV-Nef (Human immunodeficiency virus type 1, UniProt P03406); settings: literature report; cited from earlier work
T1 sequence (P03406 2-206): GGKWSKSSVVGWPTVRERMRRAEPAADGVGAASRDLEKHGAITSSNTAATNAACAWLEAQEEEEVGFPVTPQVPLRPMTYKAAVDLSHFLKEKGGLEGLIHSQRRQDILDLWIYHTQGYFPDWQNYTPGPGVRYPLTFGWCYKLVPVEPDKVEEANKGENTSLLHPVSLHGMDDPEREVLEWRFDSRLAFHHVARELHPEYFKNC

[2] = system: V-ATPase; settings: literature report; cited from earlier work

## bafilomycin D
[1]
  Potency as a Nef inhibitor (previously reported): very poor potency
[2]
  V-ATPase inhibition (previously reported): low level V-ATPase inhibition
